Assay results: patent publication US20260199309A1, “COMPOUNDS FOR THE TREATMENT OF CENTRA NERVOUS SYSTEM DISORDERS” (Autifony Therapeutics Limited, priority 2022, published 2026)

Key:
[1] = target: CYP2D6 (Homo sapiens, UniProt P10635); assay: CYP450 inhibition, pro-fluorescent probe substrate (2D6/MMMC); assay type: in vitro ADME; conditions: recombinant human CYP450, substrate MMMC; top concentration 5.00E-05
[2] = target: T1, CYP3A4 (Homo sapiens, UniProt P08684); assay: CYP450 inhibition, Vivid Baculosomes (3A4/DBOMF); assay type: in vitro ADME; conditions: substrate DBOMF, top concentration 5.00E-05, read-out: CYP3A4DBOMF
T1 construct: purchased
Excerpt: The method uses recombinant human CYP450 to metabolize pro-fluorescent probe substrates to fluorescent products. IC50 values for the effect of test compounds on the metabolism of these probe substrates provides a measure of the potency of inhibition of individual CYP450 isoforms.
The described assays measure in vitro inhibitory effects (pIC50) of compounds at the human P450 isoforms (1A2, 2C8, 2C9, 2C19, 2D6, 3A4) expressed in recombinant microsomes. Pro-fluorescent probe substrates are metabolized to fluorescent products by the enzymes.
Fluorescence is measured in kinetic mode (1 read/min for 10 min) and the fluorescence rate is calculated. Data are normalized to controls: DMSO represents 0% effect (i.e. no inhibition), while 10 μM Miconazole is set to 100% effect (i.e. complete inhibition).
Inhibition of the fluorescent signal determined by P450 […] indicates antagonist activity of the compound and allows for the calculation of the compound plC50.
CRCs of compounds are run on two different test occasions (n=2) by preparing serial dilutions from the same compound stock solution. Details of the solutions are outlined in Table 6:
Test compound serial dilutions 1 to 3 were performed from a 10 mM stock solution in DMSO by Biomek FX to generate 10 point CRC. 100% DMSO was used for assay low controls. 10 mM (2 mM for 3A4/DBOMF, 2C8/DBOMF assay only) miconazole solution in DMSO was used as assay high controls. The final concentrations of the 10 point CRCs of test compounds in the assay plate were 5.00E-05; 1.67E-05; 5.56E-06; 1.85E-06; 6.17E-07; 2.06E-07; 6.86E-08; 2.29E-08; 7.62E-09 and 2.54E-09, respectively.
The CYP3A4 and CYP2C8 were assayed using the Vivid CYP3A4 Baculosomes, CYP2C8 Baculosomes and Vivid DBOMF Substrate. […]
10 μl/well from compound plate was added and incubated for 10 min at 37° C. on a plate shaker. […] The plate was transferred into the fluorescent plate reader (EnVision, Wallac) immediately within 2 min and monitor fluorescence every minute for 10 (Excitation 485, Emission 535 and Mirror 505 FITC). […]
The inhibition effect was expressed as percentage. […]

[3] = In vitro metabolic stability (CLint), rat; assay type: in vitro ADME; conditions: intrinsic clearance, incubation 0-30 minutes at 37° C. with NADPH regenerating system
Description: (§1) The objective of this study was to determine metabolic stability of test items in preclinical species and human liver microsomes. Verapamil and dextromethorphan were used as positive controls for microsomal incubation.
(§2) Incubation medium was prepared by combining 11.2 mL of potassium phosphate monobasic and 38.8 mL of potassium phosphate dibasic, diluted to 1 L with water. Cryopreserved microsomes were thawed and kept on ice until use. Microsomes were then diluted in incubation to a protein concentration of 0.56 mg/mL. Cells were centrifuged, re-suspended in medium and counted by means of a haemocytometer. Cell viability was measured using the Trypan Blue exclusion test.
(§3) NADPH regenerating system solution was prepared by dissolving 1.7 mg of NADP, 7.8 mg of G6P and 6 units of G6P-Dehydrogenase in 1 mL of 2% sodium bicarbonate solution (prepared by dissolving 20 g of NaHCO3 in 1 L of water).
(§4) Test compounds were separately dissolved in DMF to obtain 10 mM stock solutions that were further diluted in water/acetonitrile 50/50 (v/v) to obtain the corresponding 50 uM working solutions. Verapamil and dextromethorphan were dissolved in DMF in order to obtain a 10 mM verapamil solution and 10 mM dextromethorphan solution. These solutions were then diluted in the incubation medium in order to obtain a 50 uM verapamil working solution and a 50 uM dextromethorphan working solution.
(§5) 800 μL-aliquots of NADPH regenerating system were pre-warmed at 37° C. for 5 minutes. […]
(§6) Metabolic stability was calculated from the peak area ratio of the remaining test compound with internal standard versus time. The intrinsic clearance (CLint) was determined from the first order elimination constant k (min^−1) (obtained from GraphPad by plotting the natural logarithm of the peak area ratio of the remaining test item with internal standard versus time), using the actual volume of the incubation V (mL), the amount of hepatocytes in the incubation M (million cells) and the hepatocellularity number per g liver Hn (120 for human).

[4] = target: CYP2C19 (Homo sapiens, UniProt P33261); assay: CYP450 inhibition, pro-fluorescent probe substrate (2C19/BMC); assay type: in vitro ADME; conditions: recombinant human CYP450, substrate BMC; top concentration 5.00E-05
[5] = target: CYP1A2 (Homo sapiens, UniProt P05177); assay: CYP450 inhibition, pro-fluorescent probe substrate (1A2/ER)
[6] = target: CYP2C9 (Homo sapiens, UniProt P11712); assay: CYP450 inhibition, pro-fluorescent probe substrate (2C9/FCA); assay type: in vitro ADME; conditions: recombinant human CYP450, substrate FCA; top concentration 5.00E-05
[7] = In vitro metabolic stability (CLint), human; assay type: in vitro ADME; conditions: intrinsic clearance, incubation 0-30 minutes at 37° C. with NADPH regenerating system
Description: as §1, §2, §3, §4, §5, §6

Sequence of CYP1A2 (P05177 whole entry): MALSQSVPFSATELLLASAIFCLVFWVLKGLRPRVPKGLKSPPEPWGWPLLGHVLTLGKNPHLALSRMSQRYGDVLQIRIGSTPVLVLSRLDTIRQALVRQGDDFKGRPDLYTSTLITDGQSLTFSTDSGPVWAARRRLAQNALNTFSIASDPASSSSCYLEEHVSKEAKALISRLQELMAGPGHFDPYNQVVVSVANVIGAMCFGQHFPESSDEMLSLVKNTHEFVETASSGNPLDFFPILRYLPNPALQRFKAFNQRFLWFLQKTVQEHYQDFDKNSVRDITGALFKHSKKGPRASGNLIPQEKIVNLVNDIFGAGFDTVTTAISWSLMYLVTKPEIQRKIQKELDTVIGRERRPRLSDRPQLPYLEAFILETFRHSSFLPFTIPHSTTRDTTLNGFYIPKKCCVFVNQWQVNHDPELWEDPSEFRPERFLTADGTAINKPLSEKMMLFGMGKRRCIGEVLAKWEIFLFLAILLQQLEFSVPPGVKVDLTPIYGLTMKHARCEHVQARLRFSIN
Sequence of CYP2C19 (P33261 whole entry): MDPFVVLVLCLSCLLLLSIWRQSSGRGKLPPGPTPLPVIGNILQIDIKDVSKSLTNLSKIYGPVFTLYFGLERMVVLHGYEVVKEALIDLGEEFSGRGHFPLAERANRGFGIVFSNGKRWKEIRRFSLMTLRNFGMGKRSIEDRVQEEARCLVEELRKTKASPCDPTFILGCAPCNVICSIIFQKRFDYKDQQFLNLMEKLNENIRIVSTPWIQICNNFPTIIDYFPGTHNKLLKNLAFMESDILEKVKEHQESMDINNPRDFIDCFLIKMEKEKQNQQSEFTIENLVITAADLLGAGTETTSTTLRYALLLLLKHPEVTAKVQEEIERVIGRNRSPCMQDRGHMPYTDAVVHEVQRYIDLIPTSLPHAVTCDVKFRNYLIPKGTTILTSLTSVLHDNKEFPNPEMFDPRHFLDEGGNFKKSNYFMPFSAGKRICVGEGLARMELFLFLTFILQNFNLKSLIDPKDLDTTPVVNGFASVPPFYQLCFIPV
Sequence of CYP2C9 (P11712 whole entry): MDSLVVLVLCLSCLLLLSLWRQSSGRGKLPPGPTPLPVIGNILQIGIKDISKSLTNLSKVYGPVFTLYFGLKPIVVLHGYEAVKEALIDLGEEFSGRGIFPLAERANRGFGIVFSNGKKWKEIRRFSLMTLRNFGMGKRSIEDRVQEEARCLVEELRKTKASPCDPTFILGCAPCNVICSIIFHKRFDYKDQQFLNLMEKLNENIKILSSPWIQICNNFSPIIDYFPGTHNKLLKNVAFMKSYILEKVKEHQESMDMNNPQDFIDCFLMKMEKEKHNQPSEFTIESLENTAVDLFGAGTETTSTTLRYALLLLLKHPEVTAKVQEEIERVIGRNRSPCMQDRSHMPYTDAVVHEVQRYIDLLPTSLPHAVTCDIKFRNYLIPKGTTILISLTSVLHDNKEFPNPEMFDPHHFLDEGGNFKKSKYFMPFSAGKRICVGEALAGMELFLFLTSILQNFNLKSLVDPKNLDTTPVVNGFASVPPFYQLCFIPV
T1 sequence (P08684 whole entry): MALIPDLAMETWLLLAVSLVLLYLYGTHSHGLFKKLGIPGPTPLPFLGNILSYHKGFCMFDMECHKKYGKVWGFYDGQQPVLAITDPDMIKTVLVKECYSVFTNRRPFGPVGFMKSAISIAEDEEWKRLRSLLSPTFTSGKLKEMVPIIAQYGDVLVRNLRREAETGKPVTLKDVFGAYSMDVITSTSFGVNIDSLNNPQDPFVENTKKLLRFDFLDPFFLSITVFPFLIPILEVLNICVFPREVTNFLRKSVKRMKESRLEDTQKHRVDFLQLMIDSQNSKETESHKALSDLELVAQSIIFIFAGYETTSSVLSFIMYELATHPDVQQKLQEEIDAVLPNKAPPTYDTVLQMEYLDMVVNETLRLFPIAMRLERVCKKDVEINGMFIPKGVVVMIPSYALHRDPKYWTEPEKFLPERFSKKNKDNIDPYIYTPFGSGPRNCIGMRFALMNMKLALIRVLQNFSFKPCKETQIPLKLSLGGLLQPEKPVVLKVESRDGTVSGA
Sequence of CYP2D6 (P10635 whole entry): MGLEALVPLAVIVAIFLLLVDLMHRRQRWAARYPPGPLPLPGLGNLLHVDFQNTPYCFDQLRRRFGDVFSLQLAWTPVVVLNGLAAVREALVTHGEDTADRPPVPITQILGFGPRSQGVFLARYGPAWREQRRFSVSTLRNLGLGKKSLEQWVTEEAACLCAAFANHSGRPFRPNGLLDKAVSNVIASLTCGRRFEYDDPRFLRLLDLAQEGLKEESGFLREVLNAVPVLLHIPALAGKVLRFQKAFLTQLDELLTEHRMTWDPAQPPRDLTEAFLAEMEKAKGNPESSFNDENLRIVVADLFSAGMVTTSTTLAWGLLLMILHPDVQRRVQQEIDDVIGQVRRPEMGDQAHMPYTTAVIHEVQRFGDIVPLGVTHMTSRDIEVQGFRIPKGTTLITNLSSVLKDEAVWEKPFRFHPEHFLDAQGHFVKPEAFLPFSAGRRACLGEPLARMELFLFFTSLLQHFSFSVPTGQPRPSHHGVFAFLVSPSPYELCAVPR

Row | Structure (SMILES) | IC50 [1] [µM] | IC50 [2] [µM] | CLi rat [3] [mL/min/g liver] | IC50 [4] [µM] | IC50 [5] [µM] | IC50 [6] [µM] | CLi human [7] [mL/min/g liver]
1 | Cc1ccc(Oc2ccc(N3C(=O)NC(C)(C)C3=O)c(N)n2)c2c1OCC21CC1 [Example 1, 3-[2-amino-6-(7-methylspiro[2H-benzofuran-3,1′-cyclopropane]-4-yl)oxy-3-pyridyl]-5,5-dimethyl-imidazolidine-2,4-dione] | > 50 | > 50 | 5.4 | > 50 | > 50 | 8.6 | 1.1
2 | CC1(C)NC(=O)N(c2ccc(Oc3cccc(OC(F)(F)F)c3)nc2N)C1=O [Example 9, 3-[2-amino-6-[3-(trifluoromethoxy)phenoxy]-3-pyridyl]-5,5-dimethyl-imidazolidine-2,4-dione] | > 50 | > 50 | <0.5 | 21 | > 50 | > 50 | <0.5
3 | COc1nc(Oc2ccc(C)c3c2C2(CC2)CO3)ccc1N1C(=O)NC(C)(C)C1=O [Reference Example 2, reference compound] | > 50 | 10.2 | 8.7 | 1.1 | > 50 | 0.1 | 2.0
